# Source: ChEMBL document CHEMBL3407431, “Structure-based modification of 3-/4-aminoacetophenones giving a profound change of activity on tyrosinase: from potent activators to highly efficient inhibitors” (Eur J Med Chem, 2015)
# Activity calls are given as the source filed them. No cut-off for these calls is given here.
# Biological target: T1, Tyrosinase (Agaricus bisporus) (UniProt O42713)
# T1 sequence (whole entry): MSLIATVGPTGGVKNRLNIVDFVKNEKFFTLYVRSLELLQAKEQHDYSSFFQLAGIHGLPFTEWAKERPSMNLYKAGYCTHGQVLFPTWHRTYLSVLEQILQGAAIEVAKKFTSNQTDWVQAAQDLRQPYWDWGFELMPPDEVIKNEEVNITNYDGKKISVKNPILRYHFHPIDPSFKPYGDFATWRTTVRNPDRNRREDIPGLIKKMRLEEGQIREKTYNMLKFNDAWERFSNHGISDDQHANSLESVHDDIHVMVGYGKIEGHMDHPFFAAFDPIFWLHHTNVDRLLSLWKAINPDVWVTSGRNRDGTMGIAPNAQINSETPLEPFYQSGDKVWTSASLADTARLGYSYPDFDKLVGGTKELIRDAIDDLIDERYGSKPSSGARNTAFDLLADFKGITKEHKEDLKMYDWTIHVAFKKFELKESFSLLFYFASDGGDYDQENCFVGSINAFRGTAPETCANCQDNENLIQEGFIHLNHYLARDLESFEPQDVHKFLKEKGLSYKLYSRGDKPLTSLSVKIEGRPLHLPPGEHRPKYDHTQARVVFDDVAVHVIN
# Assay: Activation of mushroom tyrosinase at 0.12 to 75 ug/L relative to control
row,Activity [%],SMILES
1,12,OC[C@H]1O[C@@H](Oc2c(O)cc(O)cc2/C=C/c2ccc(O)cc2)[C@H](O)[C@@H](O)[C@@H]1O

# Biological target: T1, Tyrosinase (Agaricus bisporus)
# Assay: Non-competitive inhibition of mushroom tyrosinase using L-DOPA as substrate at 0.1 to 0.5 uM by Lineweaver-Burk plot analysis
row,inhibition,SMILES
1,Active,C/C(=N\NC(N)=S)c1ccc(NC(=O)c2ccccc2)cc1

# Biological target: T1, Tyrosinase (Agaricus bisporus)
# Assay: Reversible inhibition of mushroom tyrosinase using L-DOPA as substrate at 1 to 2 uM
row,inhibition,SMILES
1,Active,C/C(=N\NC(N)=S)c1cccc(NC(=O)c2ccccc2)c1

# Biological target: T2, Tyrosinase (Agaricus bisporus, UniProt O42713)
# T2 sequence (O42713 whole entry): T1 sequence (whole entry)
# Description: Inhibition of mushroom tyrosinase diphenolase activity using L-DOPA as substrate preincubated for 30 mins followed by substrate addition measured for 1 min
row,SMILES,IC50 [µM]
1,C/C(=N\NC(N)=S)c1ccc(N)cc1,2.62
2,C/C(=N\NC(N)=S)c1cccc(NC(=O)Cc2ccccc2)c1,1.79
3,C/C(=N\NC(N)=S)c1cccc(N)c1,6.11
4,CC(=O)Nc1cccc(/C(C)=N/NC(N)=S)c1,4.12
5,C/C(=N\NC(N)=S)c1cccc(NC(=O)C(F)(F)F)c1,5.76
6,CCCCCC(=O)Nc1cccc(/C(C)=N/NC(N)=S)c1,1.69
7,C/C(=N\NC(N)=S)c1cccc(NC(=O)C(C)C)c1,3.62
8,C/C(=N\NC(N)=S)c1cccc(NC(=O)C(C)(C)C)c1,4.41
9,CCCCC(=O)Nc1cccc(/C(C)=N/NC(N)=S)c1,1.54
10,CCCCCCC(=O)Nc1cccc(/C(C)=N/NC(N)=S)c1,2.2

# Further lines, results first:
row,IC50 [µM],SMILES
1,0.498,COC(=O)Nc1ccc(/C(C)=N/NC(N)=S)cc1
2,0.762,CCCCCC(=O)Nc1ccc(/C(C)=N/NC(N)=S)cc1
3,0.372,CCC(=O)Nc1ccc(/C(C)=N/NC(N)=S)cc1
4,0.492,CCCCC(=O)Nc1ccc(/C(C)=N/NC(N)=S)cc1
5,0.406,C/C(=N\NC(N)=S)c1ccc(NC(=O)C(Cl)(Cl)Cl)cc1
6,1.14,COc1ccc(C(=O)Nc2ccc(/C(C)=N/NC(N)=S)cc2)cc1
7,0.291,C/C(=N\NC(N)=S)c1ccc(NC(=O)c2ccccc2)cc1
8,0.578,C/C(=N\NC(N)=S)c1ccc(NC(=O)Cc2ccccc2)cc1
9,0.508,CC(=O)Nc1ccc(/C(C)=N/NC(N)=S)cc1
10,0.644,CCCC(=O)Nc1ccc(/C(C)=N/NC(N)=S)cc1
11,0.814,C/C(=N\NC(N)=S)c1ccc(NC(=O)C(C)C)cc1
12,1.34,C/C(=N\NC(N)=S)c1ccc(NC(=O)C(F)(F)F)cc1
13,0.61,C/C(=N\NC(N)=S)c1ccc(NC(=O)c2ccc(F)cc2)cc1
14,1.53,C/C(=N\NC(N)=S)c1cccc(NC(=O)c2ccccc2)c1
15,0.356,CCCCCCC(=O)Nc1ccc(/C(C)=N/NC(N)=S)cc1

# Biological target: T1, Tyrosinase (Agaricus bisporus)
# Assay: Reversible inhibition of mushroom tyrosinase using L-DOPA as substrate at 0.1 to 0.5 uM
row,inhibition,SMILES
1,Active,C/C(=N\NC(N)=S)c1ccc(NC(=O)c2ccccc2)cc1

# Biological target: T1, Tyrosinase (Agaricus bisporus)
# Assay: Competitive-uncompetitive mixed-2 type inhibition of mushroom tyrosinase using L-DOPA as substrate at 1 to 2 uM by Lineweaver-Burk plot analysis
row,inhibition,SMILES
1,Active,C/C(=N\NC(N)=S)c1cccc(NC(=O)c2ccccc2)c1

# Biological target: T1, Tyrosinase (Agaricus bisporus)
# Assay: Activation of mushroom tyrosinase using L-DOPA as substrate at 100 umol/L preincubated for 30 mins followed by substrate addition measured for 1 min
row,Activity,SMILES
1,Active,CC(=O)Nc1ccc(C(C)=O)cc1
